According to US20050222013A1, “Methods for the use of inhibitors of histone deacetylase as synergistic agents in cancer therapy” (Georgetown University, priority 2003, published 2005):

What was measured:
Format in all cases: cell-based, human
SQ-20B cells [1] = assay: Cell cycle distribution by flow cytometry (G1 phase); conditions: for Duration of G1 arresting effect: about 24 hour exposure, TSA about 60 ng/ml, mimosine about 0.4 mM
Method: FIGS. 2A and 2B show cell cycle distributions of SQ20B cells after treatment with either TSA (FIG. 2A) or mock treatment (FIG. 2B) for 24 h. Cells were washed with fresh medium and exposed to about 10 Gy ionizing radiation. Cell nuclei were prepared for flow cytometric analysis using the procedure of Vindelov et al. (46). The samples were analyzed on a Becton-Dickinson FACStarplus instrument and the percentage of nuclei with G1, S, and G2/M DNA content was determined. […] The radiation sensitivity of cells is a function of the cell cycle. The lethal effect of radiation exposure is often observed only after subsequent cell division. Accordingly, the G1 phase is the more radiation sensitive phase. The compounds employed in the invention are observed to maintain cells in the G1 phase following radiation exposure. Comparing FIG. 2A to FIG. 2B, it can be seen that exposure of SQ-20B cells to TSA for about 24 hours prior to radiation results in an accumulation of more than about 70% of cells in the G1 phase and a maintenance of about 50% of cells for about 12 hours. After treatment with either TSA (panel A) or mock treatment (panel B) for about 24 h, cells were washed with fresh medium and exposed to about 10 Gy ionizing radiation. Cell nuclei were prepared for flow cytometric analysis. The samples were analyzed on a Becton-Dickinson FACStarplus® instrument and the percentage of nuclei with G1, S, and G2/M DNA content was determined. By comparison, irradiated mock-treated cells are not arrested.

SQ-20B cells [2] = assay: IC50 determination by clonogenic cell kill (24 hour drug treatment, colonies scored after 2 to 3 weeks); conditions: 24 hour treatment
Method: IC50 is defined as the concentration of the HDAC inhibitor that kills 50% of cells following treatment with the drug. To determine the IC50, a series of dilutions of drug is used over a broad range, for example 0-1.6 μg/ml. Approximately 100-400 cells are seeded into T-25 flasks in triplicate and treated with various concentrations of the drug. After a 24 hour treatment, the cells are washed with standard PBS (phosphate buffered saline) solution. Cells are then grown in fresh media for 2 to 3 weeks. Colonies are stained with crystal violet and scored. Concentrations of drugs showing 50% cell death represent the IC50 concentration.

SQ-20B cells [3] = assay: Clonogenic survival after ionizing radiation, fit to the single hit multitarget and linear quadratic models; parameters: α (linear quadratic model) / β (linear quadratic model) / Do (multitarget model radiosensitivity): unit not given here; conditions: for Do (multitarget model radiosensitivity) / α (linear quadratic model) / β (linear quadratic model): SQ-20B cells treated with drug at IC50, then gamma radiation
Method: Logarithmically growing SQ-20B cells were treated with TSA (about 60 ng/ml) for about 24 h and the medium was replaced with fresh medium. Cells were exposed to a graded dose of gamma radiation. A semi-logarithmic plot of the data for these cells is shown. Clonogenic survival numbers were determined and fit to the single hit multitarget and the linear quadratic models for analysis, measured by clonogenic survival analysis. Points and bars represent mean+/−SEM from triplicate flasks in each experiment.
The effectiveness of a particular treatment can be determined by measuring the radiation survival. Post treatment survival can be studied both in vitro and in vivo. For example, for in vitro determinations, exponentially growing cells can be exposed to known doses of radiation and the survival of the cells monitored. Irradiated cells are plated and cultured for about 14-about 21 days, and the colonies are stained. The surviving fraction is […]. Graphing the surviving fraction on a log scale versus the absorbed dose on a linear scale generates a survival curve. Survival curves generally show an exponential decrease in the fraction of surviving cells at higher radiation doses after an initial shoulder region in which the dose is sublethal. A similar protocol can be used for chemical agents.
Two mathematical models are commonly employed to analyze radiation survival data. A first model is the multi-target model. In this analysis, the reciprocal of the slope of the survival curve is defined as D0, the radiosensitivity of the cell population or tissue under investigation. D0 is the dose required to reduce the surviving fraction to about 37% in the exponential portion of the survival curve. The extrapolation of the linear portion of the curve to the y-intercept is denoted n. The width of the shoulder region is represented by drawing a line from the 100% survival point to the extrapolation line, this width is denoted Dq. Dq is the quasi-threshold dose, or the point at which the reduction in surviving fraction as a function of radiation dosage becomes exponential. The Dq value can also provide an estimate of an additional total dose required for each division of a single dose therapy into fractional doses. The additional dose is required to overcome the effect of sublethal damage repair that occurs when two sublethal doses are separated in time.
The linear quadratic model (surviving fraction=[…]) is used to fit radiation survival data to a continuously bending curve, where D is dose and α and β are constants. Alpha is the linear component, a measure of the initial slope that represents single-hit killing kinetics and dominates the radiation response at low doses. Beta is the quadratic component of cell killing, that represents multiple-hit killing and causes the curve to bend at higher doses. The alpha:beta ratio is the dose at which the linear and quadratic components of cell killing are equal. The more linear the response to killing of cells at low radiation dose, the higher is the value of alpha, and the greater is the radiosensitivity of the cells.
A semi-logarithmic plot of the mean+/−SEM from triplicate flasks in each experiment for these cells is shown. Logarithmically growing SQ-20B cells were treated with TSA (about 60 ng/ml) for about 24 h and the medium was replaced with fresh medium. Cells were exposed to a graded dose of gamma radiation. Clonogenic survivals were determined and fit to the single hit multitarget and the linear quadratic models for analysis.

SQ-20B cells [4] = assay: Apoptotic index
Method: SQ-20B cells were exposed to about 10 Gy of irradiation. Time zero refers to cells that were subjected to sham irradiation. At the indicated times thereafter, attached and floating cells were collected and the number of apoptotic cells was determined as a percentage of the total number of cells (apoptotic index). Data shown represent mean values±SD from three independent experiments.
HDAC inhibitors are known to promote cancer cell death through apoptosis in vitro and in vivo. This has been a basis for the use of HDAC inhibitors at high concentrations as a single agent in chemical therapy. However, we have determined that the amount effective to synergize radiation-induced cell death is substantially less than the amount required to promote apoptosis. […] Concentrations that produce these effects can be determined for any HDAC inhibitory compound by one of skill in the art by observation of markers of apoptosis such as, for example, the apoptotic index and caspase activities.
Treatment with TSA (about 60 ng/ml) or mock treatment was followed by radiation (about 10 Gy). At about 24, about 48, and about 72 hours, attached and floating cells were collected and the number of apoptotic cells was determined as a percentage of the total number of cells (apoptotic index).

| SMILES | Duration of G1 arresting effect (SQ-20B cells [1]) | IC50 (concentration that kills 50% of cells) (SQ-20B cells [2]) | Do (multitarget model radiosensitivity) (SQ-20B cells [3]) | α (linear quadratic model) (SQ-20B cells [3]) | β (linear quadratic model) (SQ-20B cells [3]) | Sensitization to ionizing radiation (SQ-20B cells [3]; head and neck tumor cells, at about the IC50 concentration) | Cells accumulated in the G1 phase (SQ-20B cells [1]; exposure for about 24 hours prior to radiation (about 10 Gy)) | Cells maintained in the G1 phase (SQ-20B cells [1]; maintained for about 12 hours after about 10 Gy) | Apoptotic index, treated versus mock treated (SQ-20B cells [4]; about 60 ng/ml followed by about 10 Gy, about 24, 48, 72 hours) | Promotion of apoptosis (SQ-20B cells [4]; at about 3 to about 7 times the IC50) | Promotion of apoptosis (SQ-20B cells [4]; at concentrations of about 200-about 400 ng/ml) | Promotion of apoptosis (SQ-20B cells [4]; at the IC50 concentration of about 60 ng/ml) |
| --- | --- | --- | --- | --- | --- | --- | --- | --- | --- | --- | --- | --- |
| NC(Cn1ccc(=O)c(O)c1)C(=O)O (stereo not shown) [mimosine] | about 4 hours | – | – | – | – | – | – | – | – | – | – | – |
| CN(C)c1ccc(C(=O)NCCCCCC(=O)NO)cc1 [MD85] | – | 0.1 µg/mL | 2.49 | 0.024 | 0.022 | – | – | – | – | – | – | – |
| C/C=C1\NC(=O)[C@H]2CSSCC/C=C/[C@H](CC(=O)N[C@H](C(C)C)C(=O)N2)OC(=O)[C@H](C(C)C)NC1=O [FR, depsipsptide (FR 901228)] | – | 0.005 µg/mL | 1.65 | 0.104 | 0.033 | – | – | – | – | – | – | – |
| CC(/C=C/C(=O)NO)=C\[C@@H](C)C(=O)c1ccc(N(C)C)cc1 [TSA, trichostatin A] | about 12 hours | about 60 ng/ml | 1.64 | 0.126 | 0.030 | significantly sensitized head and neck tumor cells to ionizing radiation | more than 70% | about 50% | the number of treated and untreated apoptotic cells were similar | does promote apoptosis | did promote significant apoptosis | did not promote significant apoptosis |
| O=C(CCCCCCC(=O)Nc1ccccc1)NO [SAHA, suberonylanilide hydroxamic acid] | – | – | 1.88 | 0.011 | 0.031 | – | – | – | – | – | – | – |
| CN(C)c1ccc(C(=O)NCCCCCCC(=O)NO)cc1 [M344] | – | 0.32 µg/mL | 1.65 | 0.077 | 0.033 | – | – | – | – | – | – | – |
